Reference: paper PMC4965013, “Open Source Drug Discovery with the Malaria Box Compound Collection for Neglected Diseases and Beyond” (PLoS Pathogens, 2016)
Like-named read-outs stand apart in the source and are kept apart here. Each block holds one compound with its values, some of them ahead of it.

Columns and labels:
[1] = tested on: P. falciparum NF54 late-stage gametocytes; conditions: ref [61]; cited from earlier work
[2] = tested on: P. falciparum NF54Pfs16 gametocytes stage I-III; conditions: ref [61]; read-out: gametocyte early stage (I-III) luciferase EC50; cited from earlier work
[3] = tested on: P. falciparum NF54 GFP-Pfs16 gametocytes stage I-III; conditions: ref [64]; read-out: gametocyte early stage (I-III) GFP-MTR EC50; cited from earlier work
[4] = tested on: P. falciparum NF54 GFP-Pfs16 gametocytes stage IV-V; conditions: ref [64]; read-out: gametocyte late stage (IV-V) GFP-MTR EC50; cited from earlier work
[5] = tested on: P. falciparum NF54Pfs16 gametocytes stage IV-V; conditions: ref [62]; read-out: gametocyte late stage (IV-V) luciferase EC50; cited from earlier work
[6] = tested on: Naegleria fowleri trophozoites; assay: Naegleria fowleri CellTiter-Glo; assay type: cell-based; conditions: Naegleria fowleri
Excerpt: Columns CY-CZ: Kyle group (data presented first in this paper). Naegleria fowleri trophozoite growth inhibition. Methods: The CellTiter-Glo (CTG) 2.0 luminescent assay is a quantitative assay that assesses the presence of cellular ATP in lysed cells, displaying an output in Relative Light Units (RLU’s). This was previously standardised, for the growth and development of Naegleria fowleri trophozoites in-vitro to assess drug susceptibility on this parasite. […] These included two drug-like molecules MMV665807 (St. Jude’s Children’s Hospital) and MMV665979 (The Genomics Institute of the Novartis Research Foundation - GNF) and two Probe-like molecules, MMV006203 (GNF) & MMV006172 (GNF; GlaxoSmithKline - GSK). […] However, these Malaria Box compounds were all toxic to zebrafish and mammalian cells.

[7] = tested on: P. falciparum 3D7; assay: [3H]-hypoxanthine growth inhibition, modified HCO3- or O2; assay type: cell-based; conditions: for IC50: Plasmodium falciparum
[8] = tested on: P. falciparum; assay: EC50 listed in S2 Table Metabolomics (used to set the concentration tested); assay type: cell-based; conditions: Plasmodium falciparum; EC50 used for Factor_XEC50 in metabolomics; read-out: EC50_nM
[9] = tested on: P. falciparum 3D7 trophozoites; assay: Metabolomic fingerprint profiling LC-MS; assay type: cell-based, Plasmodium falciparum; set-up: UDP-D-glucose / ADP-D-glucose: unit not given here
[10] = metabolite level change after treatment

Compound: CCN(CC)CCn1c(=N)n(CC(O)c2ccc(Cl)c(Cl)c2)c2ccccc21 (centres unmarked) [MMV000248]
IC50 [1]: < 350 nM

Compound: CN(C)c1ccc2nc3ccc(=[N+](C)C)cc-3sc2c1 [methylene blue, reference compound]
EC50 [2]: 30 nM
EC50 [3]: 280 nM
EC50 [4]: 287 nM
EC50 [5]: 38 nM

EC50 [8]: 300 nM
Compound: Cc1cc(NCCN2CCCCC2)c2ccc3ccccc3c2n1 [MMV006203]
EC50 [6]: 420 nM
fold change (IC50normal/ IC50hypoxia) [7]: 3.7
IC50 ([7]; 3D7, read-out: P. falciparum 3D7 IC50 1% O2, 1% O2 hypoxia): 132 nM
IC50 ([7]; 3D7, read-out: P. falciparum 3D7 IC50 5% O2): 489 nM
Acetyllysine ([9]; S2 Table Metabolomics, metabolite Acetyllysine): 0.08786
N-acetyl-L-ornithine ([9]; S2 Table Metabolomics, metabolite N-acetyl-L-ornithine): 0.002896
N-carbamoyl-L-aspartate ([9]; S2 Table Metabolomics, metabolite N-carbamoyl-L-aspartate): 0.4112
NADPH ([9]; S2 Table Metabolomics, metabolite NADPH): 0.03038
dAMP ([9]; S2 Table Metabolomics, metabolite dAMP): 0.7397
dCMP ([9]; S2 Table Metabolomics, metabolite dCMP): 0.2991
dTDP ([9]; S2 Table Metabolomics, metabolite dTDP): 0.8216
dTMP ([9]; S2 Table Metabolomics, metabolite dTMP): 0.8444
dTTP ([9]; S2 Table Metabolomics, metabolite dTTP): 0.2113
dihydroorotate ([9]; S2 Table Metabolomics, metabolite dihydroorotate): 0.4914
orotate ([9]; S2 Table Metabolomics, metabolite orotate): 0.1057
DLH ([9]; S2 Table Metabolomics, peptide DLH): -0.3111
DLS/SDL/SID ([9]; S2 Table Metabolomics, peptide DLS/SDL/SID): -0.5497
PD ([9]; S2 Table Metabolomics, peptide PD): -0.2642
PEE ([9]; S2 Table Metabolomics, peptide PEE): -0.1431
PVNF ([9]; S2 Table Metabolomics, peptide PVNF): -0.3001
3-phosphoglycerate ([9]; metabolite 3-phosphoglycerate, S2 Table Metabolomics): -0.2573
ADP-D-glucose ([9]; metabolite ADP-D-glucose, S2 Table Metabolomics): 0.2156
ATP ([9]; metabolite ATP, S2 Table Metabolomics): -0.6838
CDP ([9]; metabolite CDP, S2 Table Metabolomics, change in metabolite level after compound treatment): 0.8402
D-sedoheptulose-1/7-phosphate ([9]; metabolite D-sedoheptulose-1/7-phosphate, S2 Table Metabolomics, change in metabolite level after compound treatment): 0.9147
FAD ([9]; metabolite FAD, S2 Table Metabolomics): 0.06173
GMP ([9]; metabolite GMP, S2 Table Metabolomics, change in metabolite level after compound treatment): -0.5622
NAD+ ([9]; metabolite NAD+, S2 Table Metabolomics): -0.01124
NADP+ ([9]; metabolite NADP+, S2 Table Metabolomics): 0.01586
Octoluse Bisphosphate ([9]; metabolite Octoluse Bisphosphate, S2 Table Metabolomics, change in metabolite level after compound treatment): -0.09172
Pyroglutamic acid ([9]; metabolite Pyroglutamic acid, S2 Table Metabolomics): -0.7767
UDP-D-glucose ([9]; metabolite UDP-D-glucose, S2 Table Metabolomics): 0.04255
UDP-D-glucuronate ([9]; metabolite UDP-D-glucuronate, S2 Table Metabolomics): -0.09689
UDP-N-acetyl-glucosamine ([9]; metabolite UDP-N-acetyl-glucosamine, S2 Table Metabolomics): 0.1138
UDP ([9]; metabolite UDP, S2 Table Metabolomics, change in metabolite level after compound treatment): 0.8936
UMP ([9]; metabolite UMP, S2 Table Metabolomics, change in metabolite level after compound treatment): -0.4956
UTP ([9]; metabolite UTP, S2 Table Metabolomics, change in metabolite level after compound treatment): -0.4083
a-ketoglutarate ([9]; metabolite a-ketoglutarate, S2 Table Metabolomics): -0.4253
citrate/isocitrate ([9]; metabolite citrate/isocitrate, S2 Table Metabolomics, change in metabolite level after compound treatment): -0.3127
cytidine ([9]; metabolite cytidine, S2 Table Metabolomics): -0.1848
dATP ([9]; metabolite dATP, S2 Table Metabolomics): -0.6172
dGMP/AMP ([9]; metabolite dGMP/AMP, S2 Table Metabolomics, change in metabolite level after compound treatment): 0.6443
fumarate ([9]; metabolite fumarate, S2 Table Metabolomics, change in metabolite level after compound treatment): -0.3628
glucose-1/6-phosphate ([9]; metabolite glucose-1/6-phosphate, S2 Table Metabolomics, change in metabolite level after compound treatment): 0.2347
glycerate ([9]; metabolite glycerate, S2 Table Metabolomics, change in metabolite level after compound treatment): -0.4315
guanine ([9]; metabolite guanine, S2 Table Metabolomics, change in metabolite level after compound treatment): 0.07764
guanosine ([9]; metabolite guanosine, S2 Table Metabolomics, change in metabolite level after compound treatment): -0.09005
hypoxanthine ([9]; metabolite hypoxanthine, S2 Table Metabolomics): -0.3483
indole ([9]; metabolite indole, S2 Table Metabolomics): -0.1837
inosine ([9]; metabolite inosine, S2 Table Metabolomics, change in metabolite level after compound treatment): -0.08456
2_3-Diphosphoglyceric acid [9, 10]: 0.4386
4-phosphopantothenate [9, 10]: 0.2283
6-phospho-D-gluconate [9, 10]: 0.1112
FMN [9, 10]: 0.1526
IMP [9, 10]: 0.332
Pyrophosphate [9, 10]: 0.424
Sedoheptoluse bisphosphate [9, 10]: -0.2408
cyclic-AMP [9, 10]: -0.2974
glutathione disulfide [9, 10]: 0.042
lactate [9, 10]: -0.2642
myo-inositol [9, 10]: -0.268
nicotinate ([9]; metabolite nicotinate, S2 Table Metabolomics): -0.1416
ornithine ([9]; metabolite ornithine, S2 Table Metabolomics): -0.3267
phosphoenolpyruvate ([9]; metabolite phosphoenolpyruvate, S2 Table Metabolomics): -0.2017
pyruvate ([9]; metabolite pyruvate, S2 Table Metabolomics, change in metabolite level after compound treatment): -0.1834
ribose-phosphate ([9]; metabolite ribose-phosphate, S2 Table Metabolomics): -0.417
sarcosine/alanine ([9]; metabolite sarcosine/alanine, S2 Table Metabolomics, change in metabolite level after compound treatment): 0.1849
sn-glycerol-3-phosphate ([9]; metabolite sn-glycerol-3-phosphate, S2 Table Metabolomics): -0.1322
succinate/methylmalonic acid ([9]; metabolite succinate/methylmalonic acid, S2 Table Metabolomics, change in metabolite level after compound treatment): -0.1409
uridine ([9]; metabolite uridine, S2 Table Metabolomics, change in metabolite level after compound treatment): -0.04629
xanthosine ([9]; metabolite xanthosine, S2 Table Metabolomics, change in metabolite level after compound treatment): -0.705
